Assay results as given in the NIST ThermoML archive (doi:10.1021/acs.jced.7b00433).

Experiment: xn = mol fraction of the nth substance listed
Conditions: Drop volume

NCC(=O)O [2-aminoacetic acid] + O
surface tension liquid-gas [mN/m]
Conditions | x1 = 0.000175 | x1 = 0.000349 | x1 = 0.000698 | x1 = 0.001043 | x1 = 0.001394 | x1 = 0.00174 | x1 = 0.002087 | x1 = 0.002641
293.15 K | 72.47 | 72.49 | 72.52 | 72.57 | 72.62 | 72.68 | 72.73 | 72.81
298.15 K | 71.75 | 71.79 | 71.86 | 71.92 | 71.99 | 72.05 | 72.11 | 72.2
303.15 K | 71.04 | 71.12 | 71.23 | 71.33 | 71.43 | 71.54 | 71.64 | 71.76
308.15 K | 70.26 | 70.38 | 70.52 | 70.66 | 70.81 | 70.95 | 71.09 | 71.25
313.15 K | 69.49 | 69.63 | 69.79 | 69.95 | 70.11 | 70.27 | 70.43 | 70.61

CCCCC(N)C(=O)O (stereo not given) [2-aminohexanoic acid] + O
surface tension liquid-gas [mN/m]
Conditions | x1 = 0.000156 | x1 = 0.000311 | x1 = 0.000524 | x1 = 0.000699 | x1 = 0.000873 | x1 = 0.001048 | x1 = 0.001222 | x1 = 0.001411
293.15 K | 72.4 | 72.21 | 72.02 | 71.85 | 71.71 | 71.48 | 71.28 | 71.09
298.15 K | 71.55 | 71.28 | 71.14 | 71 | 70.82 | 70.59 | 70.42 | 70.18
303.15 K | 70.74 | 70.54 | 70.43 | 70.22 | 70.06 | 69.79 | 69.65 | 69.44
308.15 K | 69.9 | 69.8 | 69.62 | 69.44 | 69.23 | 69 | 68.8 | 68.59
313.15 K | 69.2 | 69.02 | 68.91 | 68.68 | 68.47 | 68.18 | 68.02 | 67.87

CCC(N)C(=O)O (stereo not drawn) [(.+-.)-α-aminobutyric acid] + O
surface tension liquid-gas [mN/m]
Conditions | x1 = 0.000177 | x1 = 0.000351 | x1 = 0.000702 | x1 = 0.001053 | x1 = 0.001403 | x1 = 0.001754 | x1 = 0.002103 | x1 = 0.002641
293.15 K | 72.49 | 72.49 | 72.48 | 72.47 | 72.46 | 72.45 | 72.44 | 72.43
298.15 K | 71.8 | 71.79 | 71.77 | 71.75 | 71.74 | 71.72 | 71.71 | 71.69
303.15 K | 71.08 | 71.07 | 71.05 | 71.02 | 71 | 70.98 | 70.96 | 70.93
308.15 K | 70.25 | 70.24 | 70.21 | 70.19 | 70.15 | 70.13 | 70.09 | 70.07
313.15 K | 69.47 | 69.45 | 69.42 | 69.39 | 69.35 | 69.31 | 69.28 | 69.22

CCCC(N)C(=O)O (stereo not drawn) [DL-2-aminopentanoic acid] + O
surface tension liquid-gas [mN/m]
Conditions | x1 = 0.000173 | x1 = 0.000347 | x1 = 0.000561 | x1 = 0.00104 | x1 = 0.001386 | x1 = 0.001733 | x1 = 0.002079 | x1 = 0.002641
293.15 K | 72.55 | 72.51 | 72.43 | 72.37 | 72.31 | 72.25 | 72.16 | 72.06
298.15 K | 71.84 | 71.8 | 71.71 | 71.63 | 71.53 | 71.47 | 71.41 | 71.25
303.15 K | 71.16 | 71.13 | 71.01 | 70.91 | 70.79 | 70.71 | 70.65 | 70.5
308.15 K | 70.35 | 70.31 | 70.2 | 70.1 | 70.02 | 69.85 | 69.78 | 69.63
313.15 K | 69.39 | 69.34 | 69.22 | 69.07 | 69 | 68.86 | 68.75 | 68.58

CC(N)C(=O)O (stereo not drawn) [DL-2-aminopropanoic acid] + O
surface tension liquid-gas [mN/m]
Conditions | x1 = 0.000176 | x1 = 0.000353 | x1 = 0.000705 | x1 = 0.001055 | x1 = 0.001406 | x1 = 0.001752 | x1 = 0.002105 | x1 = 0.002642
293.15 K | 72.52 | 72.53 | 72.55 | 72.58 | 72.59 | 72.62 | 72.64 | 72.68
298.15 K | 71.83 | 71.86 | 71.9 | 71.95 | 72 | 72.07 | 72.1 | 72.18
303.15 K | 71.11 | 71.15 | 71.25 | 71.35 | 71.44 | 71.5 | 71.61 | 71.72
308.15 K | 70.4 | 70.42 | 70.57 | 70.7 | 70.83 | 70.94 | 71.09 | 71.28
313.15 K | 69.48 | 69.59 | 69.73 | 69.87 | 70.02 | 70.2 | 70.36 | 70.57

O [water] + CC(N)C(=O)O
x2 = 0
Conditions | surface tension liquid-gas [mN/m]
293.15 K | 72.5
298.15 K | 71.73
303.15 K | 71.04
308.15 K | 70.3
313.15 K | 69.42

O [water] + CCC(N)C(=O)O
x2 = 0
Conditions | surface tension liquid-gas [mN/m]
293.15 K | 72.5
298.15 K | 71.73
303.15 K | 71.1
308.15 K | 70.27
313.15 K | 69.5

O [water] + CCCC(N)C(=O)O
x2 = 0
Conditions | surface tension liquid-gas [mN/m]
293.15 K | 72.58
298.15 K | 71.73
303.15 K | 71.21
308.15 K | 70.4
313.15 K | 69.46

O [water] + CCCCC(N)C(=O)O
x2 = 0
Conditions | surface tension liquid-gas [mN/m]
293.15 K | 72.5
298.15 K | 71.73
303.15 K | 71
308.15 K | 70.23
313.15 K | 69.42

O [water] + NCC(=O)O
x2 = 0
Conditions | surface tension liquid-gas [mN/m]
293.15 K | 72.45
298.15 K | 71.73
303.15 K | 71
308.15 K | 70.22
313.15 K | 69.45
